Data published in ChEMBL document CHEMBL2440076, “New triarylpyrazoles as broad-spectrum anticancer agents: design, synthesis, and biological evaluation” (Eur J Med Chem, 2013).

Assays:
[1] = Growth inhibition of human Hs 578T cells assessed as cell growth at 10 uM after 48 hrs by sulforhodamine B assay; type: functional; details: read-out: Activity
[2] = system: DU-145; assay: Growth inhibition of human DU145 cells assessed as cell growth at 10 uM after 48 hrs by sulforhodamine B assay; type: functional; details: DU-145, 48 h, read-out: Activity
[3] = system: TK-10; assay: Growth inhibition of human TK10 cells assessed as cell growth at 10 uM after 48 hrs by sulforhodamine B assay; type: functional; details: TK-10, 48 h, read-out: Activity
[4] = system: HT-29; assay: Growth inhibition of human HT-29 cells after 48 hrs by sulforhodamine B assay; type: functional; details: HT-29, 48 h
[5] = system: HCT-116; assay: Growth inhibition of human HCT116 cells after 48 hrs by sulforhodamine B assay; type: functional; details: HCT-116, 48 h
[6] = system: HCT-15; assay: Growth inhibition of human HCT15 cells after 48 hrs by sulforhodamine B assay; type: functional; details: HCT-15, 48 h
[7] = system: NCI-H322M; assay: Growth inhibition of human NCI-H322M cells after 48 hrs by sulforhodamine B assay; type: functional
[8] = system: A549; assay: Growth inhibition of human A549/ATCC cells after 48 hrs by sulforhodamine B assay; type: functional; details: A549, 48 h
[9] = system: ACHN; assay: Growth inhibition of human ACHN cells assessed as cell growth at 10 uM after 48 hrs by sulforhodamine B assay; type: functional; details: read-out: Activity
[10] = system: 786-0; assay: Growth inhibition of human 786-0 cells assessed as cell growth at 10 uM after 48 hrs by sulforhodamine B assay; type: functional; details: 786-0, 48 h, read-out: Activity
[11] = system: OVCAR-4; assay: Growth inhibition of human OVCAR4 cells assessed as cell growth at 10 uM after 48 hrs by sulforhodamine B assay; type: functional; details: OVCAR-4, 48 h, read-out: Activity
[12] = system: OVCAR-3; assay: Growth inhibition of human OVCAR3 cells assessed as cell growth at 10 uM after 48 hrs by sulforhodamine B assay; type: functional; details: OVCAR-3, 48 h, read-out: Activity
[13] = system: SK-MEL-2; assay: Growth inhibition of human SK-MEL-2 cells assessed as cell growth at 10 uM after 48 hrs by sulforhodamine B assay; type: functional; details: SK-MEL-2, 48 h, read-out: Activity
[14] = system: SK-MEL-28; assay: Growth inhibition of human SK-MEL-28 cells assessed as cell growth at 10 uM after 48 hrs by sulforhodamine B assay; type: functional; details: SK-MEL-28, 48 h, read-out: Activity
[15] = system: M14; assay: Growth inhibition of human M14 cells assessed as cell growth at 10 uM after 48 hrs by sulforhodamine B assay; type: functional; details: M14, 48 h, read-out: Activity
[16] = system: SNB-19; assay: Growth inhibition of human SNB19 cells assessed as cell growth at 10 uM after 48 hrs by sulforhodamine B assay; type: functional; details: SNB-19, 48 h, read-out: Activity
[17] = system: SW-620; assay: Growth inhibition of human SW620 cells assessed as cell growth at 10 uM after 48 hrs by sulforhodamine B assay; type: functional; details: SW-620, 48 h, read-out: Activity
[18] = system: HT-29; assay: Growth inhibition of human HT-29 cells assessed as cell growth at 10 uM after 48 hrs by sulforhodamine B assay; type: functional; details: HT-29, 48 h, read-out: Activity
[19] = system: KM12; assay: Growth inhibition of human KM12 cells assessed as cell growth at 10 uM after 48 hrs by sulforhodamine B assay; type: functional; details: KM12, 48 h, read-out: Activity
[20] = system: HCT-15; assay: Growth inhibition of human HCT15 cells assessed as cell growth at 10 uM after 48 hrs by sulforhodamine B assay; type: functional; details: HCT-15, 48 h, read-out: Activity
[21] = Growth inhibition of human HCC2998 cells assessed as cell growth at 10 uM after 48 hrs by sulforhodamine B assay; type: functional; details: HCC 2998, 48 h, read-out: Activity
[22] = Growth inhibition of human Hs 578T cells after 48 hrs by sulforhodamine B assay; type: functional
[23] = system: DU-145; assay: Growth inhibition of human DU145 cells after 48 hrs by sulforhodamine B assay; type: functional; details: DU-145, 48 h
[24] = system: PC-3; assay: Growth inhibition of human PC3 cells after 48 hrs by sulforhodamine B assay; type: functional, cell-based; details: PC-3, 48 h
[25] = system: RXF 393; assay: Growth inhibition of human RXF393 cells after 48 hrs by sulforhodamine B assay; type: functional; details: RXF 393, 48 h
[26] = system: SN12C; assay: Growth inhibition of human SN12C cells after 48 hrs by sulforhodamine B assay; type: functional
[27] = system: A498; assay: Growth inhibition of human A498 cells after 48 hrs by sulforhodamine B assay; type: functional, cell-based; details: A498, 48 h
[28] = Growth inhibition of human NCI-ADR-RES cells after 48 hrs by sulforhodamine B assay; type: functional
[29] = system: UACC-257; assay: Growth inhibition of human UACC257 cells after 48 hrs by sulforhodamine B assay; type: functional; details: UACC-257, 48 h
[30] = system: MDA-MB-435; assay: Growth inhibition of human MDA-MB-435 cells after 48 hrs by sulforhodamine B assay; type: functional, cell-based; details: MDA-MB-435, 48 h
[31] = system: M14; assay: Growth inhibition of human M14 cells after 48 hrs by sulforhodamine B assay; type: functional; details: M14, 48 h
[32] = system: SNB-75; assay: Growth inhibition of human SNB75 cells after 48 hrs by sulforhodamine B assay; type: functional; details: SNB-75, 48 h
[33] = system: U-251; assay: Growth inhibition of human U251 cells after 48 hrs by sulforhodamine B assay; type: functional; details: U-251, 48 h
[34] = system: SNB-19; assay: Growth inhibition of human SNB19 cells after 48 hrs by sulforhodamine B assay; type: functional; details: SNB-19, 48 h
[35] = system: A549; assay: Growth inhibition of human A549/ATCC cells assessed as cell growth at 10 uM after 48 hrs by sulforhodamine B assay; type: functional; details: A549, 48 h, read-out: Activity
[36] = read-out: LC50 (the source's name)

## COc1cc(-c2nn(-c3cccc(NC(=O)c4ccccc4)c3)cc2-c2ccncc2)ccc1Cl
[1]
  growth at 10 µM: -1.34%
[2]
  growth at 10 µM: 11.6%
[3]
  growth at 10 µM: 31%
[4]
  GI50: 0.392 µM
  TGI: > 100 µM
[4]; [36]
  CC50: > 100 µM
[5]
  GI50: 0.5 µM
  TGI: > 100 µM
[5]; [36]
  CC50: > 100 µM
[6]
  GI50: 0.654 µM
  LC50: > 100 µM
  TGI: > 100 µM
[7]
  GI50: 4.59 µM
  TGI: > 100 µM
[7]; [36]
  CC50: > 100 µM
[8]
  GI50: 0.585 µM
  LC50 (concentration killing 50% of starting cells): > 100 µM
  TGI: > 100 µM
[9]
  growth at 10 µM: 32.3%
[10]
  growth at 10 µM: 21.3%
[11]
  growth at 10 µM: 46.5%
[12]
  growth at 10 µM: 0.02%
[13]
  growth at 10 µM: -42.5%
[14]
  growth at 10 µM: 34.4%
[15]
  growth at 10 µM: -3.82%
[16]
  growth at 10 µM: 50%
[17]
  growth at 10 µM: 18.4%
[18]
  growth at 10 µM: 2.03%
[19]
  growth at 10 µM: 12.3%
[20]
  growth at 10 µM: 19.2%
[21]
  growth at 10 µM: 20.1%
[22]
  GI50: 1.11 µM
  TGI: > 100 µM
[22]; [36]
  CC50: > 100 µM
[23]
  GI50: 0.78 µM
  LC50: > 100 µM
  TGI: 54.7 µM
[24]
  GI50: 0.426 µM
  IC50: 0.43 µM
  TGI: > 100 µM
[24]; [36]
  CC50: > 100 µM
[25]
  GI50: 0.646 µM
  LC50 (concentration killing 50% of cells): > 100 µM
  TGI: 6.34 µM
[26]
  GI50: 2.95 µM
  TGI: > 100 µM
[26]; [36]
  CC50: > 100 µM
[27]
  GI50: 0.361 µM
  IC50: 0.36 µM
  TGI: 3.14 µM
[27]; [36]
  CC50: > 100 µM
[28]
  GI50: 0.448 µM
  TGI: > 100 µM
[28]; [36]
  CC50: > 100 µM
[29]
  GI50: 0.859 µM
  TGI: > 100 µM
[29]; [36]
  CC50: > 100 µM
[30]
  GI50: 0.189 µM
  IC50: 0.19 µM
  TGI: 0.551 µM
[30]; [36]
  CC50: 12.3 µM
[31]
  GI50: 0.575 µM
  LC50 (concentration killing 50% of cells): > 100 µM
  TGI: 12.9 µM
[32]
  GI50: 0.575 µM
  LC50 (lethal concentration, 50% net cell kill): > 100 µM
  TGI: > 100 µM
[33]
  GI50: 0.661 µM
  LC50 (concentration killing 50% of cells): > 100 µM
  TGI: 30.8 µM
[34]
  GI50: 0.86 µM
  LC50 (concentration killing 50% of cells): > 100 µM
  TGI: > 100 µM
[35]
  growth at 10 µM: 4.81%
